For 1 molecule, Ki results are on record in patent US6017917A, “Guanidine derivatives” (Fujisawa Pharamceutical Co., Ltd., priority 1996, dated 2000).

Structures can show the parent of a compound that is named as a salt.

The assay addresses T1, Na^+ /H^+ exchanger (Rattus norvegicus, UniProt P26431).
T1 construct: endogenous in cells; host or cells: thymocytes freshly isolated from the thymus of a male SD rat
In words: Inhibitory activity on Na^+ /H^+ exchange in cells (swelling of thymocytes in sodium propionate medium). The assay is classed as cell-based, rat (SD strain). The note with it: apparent Ki from Lineweaver-Burk plot, sodium-propionate medium pH 6.8, rate of swelling, 3-5 concentrations. Here is the method:
[2] Inhibitory activity on Na^+ /H^+ exchange in cells
Procedure was carried out according to a similar manner to the method described in Enzymology 173 , 777 (1989).
One male SD strain rat weighing 250-300 g was sacrificed with the blow on the head. Then, the thymus was removed into ice-cold NaCl medium (140 mM sodium chloride, 1 mM potassium chloride, 1 mM calcium chloride, 1 mM magnesium chloride, 10 mM glucose and 20 mM N-2-hydroxyethylpiperazine-N'-2-ethanesulfonic acid (HEADS)--pH 7.3), cut in small fragments, and transferred to glass homogenizer. The cells were dissociated by gentle strokes, and the resulting suspension was filtrated through six layers of surgical gauze and the filtrate was centrifuged at 4° C. at 1000 g for 5 minutes. The pellet was resuspended in RPMI 1640 medium (pH 7.3) at room temperature to adjust final cell concentration (1×10^7 cells/ml).
This method detects the swelling that accompanies activation of Na^+ /H^+ exchanger in cells incubated with sodium propionate. Propionic acid rapidly penetrates through the membrane. […]
Cell sizing and counting were performed electrically with the Coulter Counter-Channelyzer (AT-II). […] Rate of Swelling (Δ volume/min.) was measured by using 3-5 concentrations of test compound. Then, apparent Ki value of test compound was calculated by using Line weaver-Burk plot.

T1 sequence (P26431 whole entry): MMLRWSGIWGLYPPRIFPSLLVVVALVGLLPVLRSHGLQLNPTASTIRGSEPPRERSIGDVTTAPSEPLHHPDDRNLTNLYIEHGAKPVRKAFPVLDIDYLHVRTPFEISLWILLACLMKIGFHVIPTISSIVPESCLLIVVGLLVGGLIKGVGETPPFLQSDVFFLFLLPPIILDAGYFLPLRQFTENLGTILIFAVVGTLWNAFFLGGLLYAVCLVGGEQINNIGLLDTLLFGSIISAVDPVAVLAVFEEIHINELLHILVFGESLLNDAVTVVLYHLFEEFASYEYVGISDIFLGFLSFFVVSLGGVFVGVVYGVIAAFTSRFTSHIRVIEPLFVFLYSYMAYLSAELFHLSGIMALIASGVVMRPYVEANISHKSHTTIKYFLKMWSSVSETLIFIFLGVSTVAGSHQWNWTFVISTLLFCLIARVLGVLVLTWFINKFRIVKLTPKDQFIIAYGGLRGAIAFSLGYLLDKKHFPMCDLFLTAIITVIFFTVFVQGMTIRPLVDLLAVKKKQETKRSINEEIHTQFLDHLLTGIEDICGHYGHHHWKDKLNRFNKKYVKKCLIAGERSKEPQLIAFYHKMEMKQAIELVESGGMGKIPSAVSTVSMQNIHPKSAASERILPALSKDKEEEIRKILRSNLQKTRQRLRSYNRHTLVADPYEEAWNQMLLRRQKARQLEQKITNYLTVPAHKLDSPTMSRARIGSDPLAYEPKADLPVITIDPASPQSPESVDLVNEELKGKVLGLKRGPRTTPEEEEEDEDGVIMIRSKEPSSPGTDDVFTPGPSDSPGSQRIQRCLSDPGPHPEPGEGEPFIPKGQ

`NC(N)=NC(=O)c1cc(C(=O)NCCN2CCOCC2)cc(-c2cc(Cl)ccc2Cl)c1` [(a), [5-(2,5-dichlorophenyl)-3-[(2-morpholinoethyl)-carbamoyl]benzoyl]guanidine.dihydrochloride]: the Ki was < 100 nM.
